Measured values published in patent publication US9434711B2 (Janssen Pharmaceutica, NV, priority 2007, dated 2016).
pIC50: −log10 of the molar value.

Molecular target: canine TRPM8 (Canis lupus familiaris, UniProt Q1A7N1)
Assay: In Vitro Canine TRPM8 Functional Assay (Ca2+ fluorescence, icilin activation)
Type: cell-based
Details: for pIC50: HEK293 cells stably expressing canine TRPM8, icilin activation, eight-point dose-response, read-out: IC50; for inhibition at 0.2 µM / % Inh @ 0.2 (μM): compound at 0.2 μM, canine TRPM8, icilin activation; for inhibition at 0.2 µM: read-out: % Inh @ 0.2
Procedure, shortened: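 HEK293 cells stably expressing canine TRPM8 were loaded with Calcium 3 dye (35 min at 37 °C, then 25 min at room temperature). Compound was added and Ca2+ fluorescence was read for 5 min before icilin at a concentration giving about 80% maximal response. EC50/IC50 came from eight-point dose-response curves, quadruplicate wells.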

canine TRPM8, sequence (Q1A7N1 1-1104): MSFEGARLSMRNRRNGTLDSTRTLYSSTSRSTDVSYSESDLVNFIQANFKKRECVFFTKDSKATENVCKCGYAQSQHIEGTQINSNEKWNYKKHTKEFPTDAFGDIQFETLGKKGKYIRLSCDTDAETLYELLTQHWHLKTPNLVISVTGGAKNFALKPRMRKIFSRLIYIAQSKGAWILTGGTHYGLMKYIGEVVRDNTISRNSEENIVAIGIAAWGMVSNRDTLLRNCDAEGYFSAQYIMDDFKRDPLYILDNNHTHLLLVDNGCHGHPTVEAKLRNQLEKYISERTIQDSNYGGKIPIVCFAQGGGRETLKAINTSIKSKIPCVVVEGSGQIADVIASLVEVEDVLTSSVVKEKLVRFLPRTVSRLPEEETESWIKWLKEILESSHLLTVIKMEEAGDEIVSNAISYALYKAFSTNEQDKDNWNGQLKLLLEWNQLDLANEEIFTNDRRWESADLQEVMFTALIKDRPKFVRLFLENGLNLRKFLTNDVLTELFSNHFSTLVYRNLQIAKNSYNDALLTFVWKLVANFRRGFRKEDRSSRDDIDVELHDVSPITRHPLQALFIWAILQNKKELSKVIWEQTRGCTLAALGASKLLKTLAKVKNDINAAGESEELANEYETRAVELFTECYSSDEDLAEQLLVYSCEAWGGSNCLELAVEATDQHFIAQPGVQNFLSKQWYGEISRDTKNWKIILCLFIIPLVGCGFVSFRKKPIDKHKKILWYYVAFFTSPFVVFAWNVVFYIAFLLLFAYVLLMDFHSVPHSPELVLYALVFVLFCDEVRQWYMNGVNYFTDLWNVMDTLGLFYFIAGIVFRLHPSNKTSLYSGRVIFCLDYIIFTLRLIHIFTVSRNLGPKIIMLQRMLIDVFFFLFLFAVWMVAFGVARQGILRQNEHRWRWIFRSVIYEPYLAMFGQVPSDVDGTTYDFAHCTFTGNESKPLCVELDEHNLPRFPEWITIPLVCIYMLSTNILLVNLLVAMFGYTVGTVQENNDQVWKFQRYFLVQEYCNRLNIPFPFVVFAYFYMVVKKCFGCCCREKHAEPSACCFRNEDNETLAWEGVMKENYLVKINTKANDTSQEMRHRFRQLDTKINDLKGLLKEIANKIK

Row | Structure (SMILES) | pIC50 | inhibition at 0.2 µM [%] | % Inh @ 0.2 (μM) [%]
1 | CCCCN(c1sc2ccccc2c1C(C)(C)O)S(=O)(=O)c1ccc(C(C)=O)cc1 [Compound 344, N-(Butyl)-N-(3-(1-hydroxy-1-methyl-ethyl)-benzo[b]thiophen-2-yl)-4-acetyl-benzenesulfonamide] | 7.90 | 99 | 
2 | CCCCN(c1sc2ccccc2c1Br)S(=O)(=O)c1cccnc1 [Compound 345, N-(3-Bromobenzo[b]thiophen-2-yl)-N-(butyl)-pyridin-3-yl-sulfonamide] | 7.58 | 99 | 
3 | CCS(=O)(=O)N(Cc1ccc(F)c(C(F)(F)F)c1)c1sc2ccccc2c1CN(C)C [Compound 346, N-(3-Dimethylaminomethyl-benzo[b]thiophen-2-yl)-N-(4-fluoro-3-trifluoromethyl-benzyl)-ethanesulfonamide] | 7.36 | 95 | 
4 | CCS(=O)(=O)N(Cc1ccc(F)c(C(F)(F)F)c1)c1sc2ccccc2c1CNC [Compound 347, N-(4-Fluoro-3-trifluoromethyl-benzyl)-N-(3-methylaminomethyl-benzo[b]thiophen-2-yl)-ethanesulfonamide] | 7.24 | 95 | 
5 | CCCNCc1c(N(Cc2ccc(F)c(C(F)(F)F)c2)S(=O)(=O)CC)sc2ccccc12 [Compound 348, N-(4-Fluoro-3-trifluoromethyl-benzyl)-N-(3-propylaminomethyl-benzo[b]thiophen-2-yl)-ethanesulfonamide] |  | 60 | 
6 | CCS(=O)(=O)N(Cc1ccc(F)c(C(F)(F)F)c1)c1sc2ccccc2c1CN1CCCC1 [Compound 349, N-(4-Fluoro-3-trifluoromethyl-benzyl)-N-(3-pyrrolidin-1-yl-methyl-benzo[b]thiophen-2-yl)-ethanesulfonamide] |  |  | 42
7 | CS(=O)(=O)CS(=O)(=O)N(Cc1ccc(F)c(C(F)(F)F)c1)c1sc2ccccc2c1Br [Compound 350, N-(3-Bromo-benzo[b]thiophen-2-yl)-N-(4-fluoro-3-trifluoromethyl-benzyl)-C-methanesulfonyl-methanesulfonamide] |  | 48 | 
8 | CC(=O)c1ccc(S(=O)(=O)N(CCCC(F)(F)F)c2sc3ccccc3c2C)cc1 [Compound 351, N-(3-Methyl-benzo[b]thiophen-2-yl)-N-(4,4,4-trifluoro-butyl)-4-acetyl-benzenesulfonamide] | 7.67 | 97 | 
9 | CC(=O)c1ccc(S(=O)(=O)N(Cc2ccc(F)c(C(F)(F)F)c2)c2sc3ccccc3c2C)cc1 [Compound 352, N-(3-Methyl-benzo[b]thiophen-2-yl)-N-(4-fluoro-3-trifluoromethyl-benzyl)-4-acetyl-benzenesulfonamide] | 8.07 | 96 | 
10 | Cc1nccc(-c2cccc(S(=O)(=O)N(Cc3ccc(F)c(C(F)(F)F)c3)c3sc4ccccc4c3C)c2)n1 [Compound 353, N-(3-Methyl-benzo[b]thiophen-2-yl)-N-(4-fluoro-3-trifluoromethyl-benzyl)-3-(2-methyl-pyrimidin-4-yl)-benzenesulfonamide] | 8.03 | 98 | 
11 | Cc1nccc(-c2cccc(S(=O)(=O)N(CCCC(F)(F)F)c3sc4ccccc4c3C)c2)n1 [Compound 354, N-(3-Methyl-benzo[b]thiophen-2-yl)-N-(4,4,4-trifluoro-butyl)-3-(2-methyl-pyrimidin-4-yl)-benzenesulfonamide] | 6.97 | 87 | 
12 | COc1ccc(S(=O)(=O)N(Cc2ccc(F)c(C(F)(F)F)c2)c2sc3ccccc3c2C)c2cccnc12 [Compound 355] | 7.53 |  | 92
13 | COc1ccc(S(=O)(=O)N(CCCC(F)(F)F)c2sc3ccccc3c2C)c2cccnc12 [Compound 356, N-(3-Methyl-benzo[b]thiophen-2-yl)-N-(4,4,4-trifluoro-butyl)-8-methoxyquinolin-5-ylsulfonamide] | 7.38 | 93 | 
14 | COc1ncccc1S(=O)(=O)N(Cc1ccc(F)c(C(F)(F)F)c1)c1sc2ccccc2c1C [Compound 357, N-(3-Methyl-benzo[b]thiophen-2-yl)-N-(4-fluoro-3-trifluoromethyl-benzyl)-2-methoxy-pyridin-3-ylsulfonamide] | 7.72 | 95 | 
15 | Cc1c(N(Cc2ccc(F)c(C(F)(F)F)c2)S(=O)(=O)c2cccnc2N(C)C)sc2ccccc12 [Compound 358, N-(3-Methyl-benzo[b]thiophen-2-yl)-N-(4-fluoro-3-trifluoromethyl-benzyl)-2-dimethylamino-pyridin-3-yl-sulfonamide] | 7.92 | 92 | 
16 | COc1ccc(S(=O)(=O)N(Cc2ccc(F)c(C(F)(F)F)c2)c2sc3ccccc3c2C)cn1 [Compound 359] | 7.77 | 93 | 
17 | Cc1c(N(Cc2ccc(F)c(C(F)(F)F)c2)S(=O)(=O)c2cnccc2N(C)C)sc2ccccc12 [Compound 360, N-(3-Methyl-benzo[b]thiophen-2-yl)-N-(4-fluoro-3-trifluoromethyl-benzyl)-4-dimethylamino-pyridin-3-yl-sulfonamide] | 7.39 |  | 

Row | Structure (SMILES) | pIC50 | inhibition at 0.2 µM [%] | % Inh @ 0.2 (μM) [%]
18 | Cc1c(N(Cc2ccc(F)c(C(F)(F)F)c2)S(=O)(=O)c2ccc(N(C)C)nc2)sc2ccccc12 [Compound 360] |  | 92 | 
19 | CS(=O)(=O)CS(=O)(=O)N(Cc1ccc(F)c(C(F)(F)F)c1)c1cc2ccccc2s1 [Compound 362, N-(Benzo[b]thiophen-2-yl)-N-(4-fluoro-3-trifluoromethyl-benzyl)-C-methanesulfonyl-methanesulfonamide] |  | 67 | 
20 | CCCCN(c1sc2ccccc2c1C)S(C)(=O)=O [Compound 363, N-(Butyl)-N-(3-methyl-benzo[b]thiophen-2-yl)-methanesulfonamide] | 7.29 | 84 | 
21 | Cc1c(N(CCC(F)(F)F)S(C)(=O)=O)sc2ccccc12 [Compound 364, N-(3-Methyl-benzo[b]thiophen-2-yl)-N-(3,3,3-trifluoro-propyl)-methanesulfonamide] | 7.36 | 77 | 
22 | Cc1c(N(CC2CC2)S(C)(=O)=O)sc2ccccc12 [Compound 365, N-(Cyclopropylmethyl)-N-(3-methyl-benzo[b]thiophen-2-yl)-methanesulfonamide] |  | 38 | 
23 | Cc1c(N(CCOC(C)(C)C)S(C)(=O)=O)sc2ccccc12 [Compound 366, N-(2-tert-Butoxy-ethyl)-N-(3-methyl-benzo[b]thiophen-2-yl)-methanesulfonamide] | 7.40 | 85 | 
24 | Cc1c(N(Cc2ccc(F)c(F)c2)S(C)(=O)=O)sc2ccccc12 [Compound 367, N-(3,4-Difluoro-benzyl)-N-(3-methyl-benzo[b]thiophen-2-yl)-methanesulfonamide] | 8.00 | 91 | 
25 | Cc1c(N(Cc2ccc(F)c(C(F)(F)F)c2)S(C)(=O)=O)sc2ccccc12 [Compound 368, N-(4-Fluoro-3-trifluoromethyl-benzyl)-N-(3-methyl-benzo[b]thiophen-2-yl)-methanesulfonamide] | 7.74 | 96 | 
26 | Cc1c(N(Cc2ccc(OC(F)(F)F)cc2)S(C)(=O)=O)sc2ccccc12 [Compound 369, N-(3-Methyl-benzo[b]thiophen-2-yl)-N-(4-trifluoromethoxy-benzyl)-methanesulfonamide] | 7.74 | 98 | 
27 | N#Cc1cccc(S(=O)(=O)N(Cc2ccc(F)c(C(F)(F)F)c2)c2cc3ccccc3s2)c1 [Compound 370, N-(Benzo[b]thiophen-2-yl)-N-(4-fluoro-3-trifluoromethyl-benzyl)-3-cyano-benzenesulfonamide] |  | 29 | 
28 | Cc1c(N(CCCC(F)(F)F)S(=O)(=O)c2ccc(C(C)(C)O)cc2)sc2ccccc12 [Compound 371, N-(3-Methyl-benzo[b]thiophen-2-yl)-N-(4,4,4-trifluoro-butyl)-4-(1-hydroxy-1-methyl-ethyl)-benzenesulfonamide] | 8.05 | 94 | 
29 | Cc1c(N(CCCC(F)(F)F)S(=O)(=O)c2ccc(Oc3ccncc3)cc2)sc2ccccc12 [Compound 372, N-(3-Methyl-benzo[b]thiophen-2-yl)-N-(4,4,4-trifluoro-butyl)-4-(pyridin-4-yloxy)-benzenesulfonamide] | 7.57 | 91 | 
30 | Cc1c(N(CCCC(F)(F)F)S(=O)(=O)c2ccc(Oc3cccnc3)cc2)sc2ccccc12 [Compound 373, N-(3-Methyl-benzo[b]thiophen-2-yl)-N-(4,4,4-trifluoro-butyl)-4-(pyridin-3-yloxy)-benzenesulfonamide] | 6.91 | 77 | 
31 | Cc1c(N(Cc2ccc(F)c(C(F)(F)F)c2)S(=O)(=O)c2ccc(C(C)(C)O)cc2)sc2ccccc12 [Compound 374, N-(3-Methyl-benzo[b]thiophen-2-yl)-N-(4-fluoro-3-trifluoromethyl-benzyl)-4-(1-hydroxy-1-methyl-ethyl)-benzenesulfonamide] | 8.40 | 89 | 
32 | COC(=O)c1cccc(S(=O)(=O)N(Cc2ccc(F)c(C(F)(F)F)c2)c2sc3cc(F)ccc3c2C)c1 [Compound 375, N-(6-Fluoro-3-methyl-benzo[b]thiophen-2-yl)-N-(4-fluoro-3-trifluoromethyl-benzyl)-3-carbomethoxy-benzenesulfonamide] | 7.43 | 79 | 
33 | Cc1c(N(Cc2ccc(F)c(C(F)(F)F)c2)S(=O)(=O)c2cccc(C(=O)O)c2)sc2cc(F)ccc12 [Compound 376, N-(6-Fluoro-3-methyl-benzo[b]thiophen-2-yl)-N-(4-fluoro-3-trifluoromethyl-benzyl)-3-carboxy-benzenesulfonamide] | 7.59 | 85 | 
34 | CSc1ncccc1S(=O)(=O)N(Cc1ccc(F)c(C(F)(F)F)c1)c1sc2ccccc2c1C [Compound 377, N-(3-Methyl-benzo[b]thiophen-2-yl)-N-(4-fluoro-3-trifluoromethyl-benzyl)-2-thiomethyl-pyridin-3-yl-sulfonamide] |  |  | 65
